In patent US12492208B2, “Crystal of pyrimidine compound” (TAIHO PHARMACEUTICAL CO., LTD., priority 2020, dated 2025):
Like-named read-outs stand apart in the source and are kept apart here.

Experiments:
[1] = Dynamic vapor sorption (DVS) test; assay type: physicochemical; settings: for hygroscopicity determination: from mass increase under 95% relative humidity; for Weight change rate, Adsorption / Weight change rate, Desorption: 25° C.
Experimental: Dynamic vapor sorption tests were conducted using a type II crystal of compound (I) with1 equivalent of fumaric acid, a free-form type II crystal of the same, a free-form type I crystal of the same, a type V crystal of the same with 1 equivalent of fumaric acid, and a crystal of the same with 1 equivalent of L-tartaric acid obtained in the Examples and Reference Examples.
The dynamic vapor sorption test was conducted for measurement according to the following conditions.
Approximately 10 mg of each sample was packed in a dedicated quartz holder, and the weight of the sample at each humidity was continuously measured and recorded under the following conditions.

[2] = Blood concentration measurement test; assay type: in vivo, female rats (Crl:CD (SD)); settings: rat; for AUC(0-t): read-out: AUC0-6hr
Experimental: Blood concentration measurement tests were conducted for the type I crystal of compound (I), the type II crystal of compound (I), and the type II crystal of compound (I) with 1 equivalent of fumarate obtained in the Examples. Specifically, 0.5% HPMC containing 0.1N hydrochloric acid was used for the type I crystal of compound (I) and 0.5% HPMC was used for the type II crystal of compound (I) and the type II crystal of compound (I) with 1 equivalent of fumaric acid to convert each crystal into the compound (I) (free-form) in terms of molecular weight so as to prepare suspensions of 100 mg/10 mL and 300 mg/10 mL. These administration solutions were orally administered to female rats (Crl:CD (SD), Charles River Laboratories Japan, Inc.) kept under feeding conditions at a volume of 10 mL/kg body weight using an oral administration sonde. After administration, the rats were returned to the rat cage and their conditions were checked. Water and feeding were freely available in the cage. At 0.5, 1, 2, 4, and 6 hours after administration, the rats were anesthetized with isoflurane, and approximately 80 μL of blood was collected from the jugular vein using a heparin-coated syringe and an injection needle (25 G).
The collected blood was ice-cooled and plasma was separated by centrifugation. After the blood collection was completed, the rats were returned to the rat cage and the state after awakening of anesthesia was checked. After the final blood collection, the depth of isoflurane anesthesia was checked. Then, the limbs were fixed in a supine position with a small animal experiment holding apparatus, and the abdomen was opened such that each rat was euthanized by exsanguination through an incision in the abdominal aorta and vena cava.
AUC0-6 hr (Area under the blood concentration-time curve for 0 to 6 hours after administration calculated by the trapezoidal method), Cmax (maximum blood concentration), and Tmax (time to reach maximum blood concentration) were calculated from the concentration of the compound (I) in each plasma measured by the MRM method using LC/MS/MS and quantified from the calibration curve using Phoenix WinNonlin (v6.4.0,Certara USA, Inc.).

Solid stability test = assay type: physicochemical
Experimental: The free-form type II crystals of the compound (I) and type II crystals thereof with 1 equivalent of fumaric acid obtained in the Examples and Comparative Examples were evaluated for solid stability after storage for 4 weeks. • Storage condition: 60° C. (closed system) • Storage period: 4 weeks • Stored amount: Approximately 30 mg • Storage container: Glass bottle
Approximately 1 mg of a sample was weighed, dissolved in approximately 1 mL of a liquid mixture of water/acetonitrile (1:1), and 5 μL of this solution was accurately measured. Changes in the amount of related substances (the amount of substances detected other compound (I)) were analyzed by HPLC by the following method. Hplc Analysis Method (Stability Test)
The amount of related substances in the sample solution was measured by HPLC analysis. Handling of the apparatuses, including data processing, was in accordance with the methods and procedures instructed for each apparatus. • Column: XSelect CSH C18 (4.6×150 mm, 3.5 μm) manufactured by Waters • UV detection: 246 nm • Column temperature: 40° C. • Flow rate: 1.0 mL/min • Sample cooler: 5° C. • Sample concentration: 1 mg/mL • Mobile phase A: Liquid mixture of 5 mmol/L ammonium formate buffer (pH 6.5)/acetonitrile (9:1) • Mobile phase B: Acetonitrile

[3] = 60° C. (closed system), 4 weeks
[4] = female, Crl:CD (SD), plasma, po, 100 mg/kg
[5] = oral, 300 mg/kg, listed as Type I crystal of compound (I) (with hydrochloric acid)
[6] = oral, listed as type I crystal of compound (I) with hydrochloric acid

SMILES	hygroscopicity determination [1]	Weight change rate, Adsorption ([1]; relative humidity 5%) [%]	Weight change rate, Desorption ([1]; relative humidity 5%) [%]	Weight change rate, Adsorption ([1]; relative humidity 20%) [%]	Weight change rate, Desorption ([1]; relative humidity 20%) [%]	Weight change rate, Adsorption ([1]; relative humidity 40%) [%]	Weight change rate, Desorption ([1]; relative humidity 40%) [%]	Weight change rate, Adsorption ([1]; relative humidity 60%) [%]	Weight change rate, Desorption ([1]; relative humidity 60%) [%]	Weight change rate, Adsorption ([1]; relative humidity 80%) [%]	Weight change rate, Desorption ([1]; relative humidity 80%) [%]	Weight change rate, Desorption ([1]; relative humidity 95%) [%]	other results
C=CC(=O)N1C[C@H](n2c(C#CC3CC3)c(C(=O)N[C@H](C)c3ccccc3)c3c(N)ncnc32)C[C@@H]1C [type V crystal of compound (I) with 1 equivalent of fumaric ] [7-((3R,5S)-1-acryloyl-5-methylpyrrolidin-3-yl)-4-amino-6-(cyclopropylethynyl)-N—((R)-1-phenylethyl)-7H-pyrrolo[2,3-d]pyrimidine-5-carboxamide]	almost non-hygroscopic	0.01	0.06	0.11	0.16	0.21	0.27	0.33	0.39	0.47	0.51	0.59	
C=CC(=O)N1C[C@H](n2c(C#CC3CC3)c(C(=O)N[C@H](C)c3ccccc3)c3c(N)ncnc32)C[C@@H]1C [free-form type II crystal of compound (I)] [7-((3R,5S)-1-acryloyl-5-methylpyrrolidin-3-yl)-4-amino-6-(cyclopropylethynyl)-N—((R)-1-phenylethyl)-7H-pyrrolo[2,3-d]pyrimidine-5-carboxamide]	almost non-hygroscopic	0.01	0.01	0.02	0.03	0.05	0.06	0.08	0.08	0.10	0.11	0.12	AUC 0-6 hr increase when the dose was increased from 100 mg/kg to 300 mg/kg ([2]; oral): 1.5 times; Cmax increase when the dose was increased from 100 mg/kg to 300 mg/kg ([2]; oral): 1.2 times; AUC0-6hr ([2]; oral, 100 mg/kg): 5.79 µM·h; Cmax ([2]; oral, 100 mg/kg): 1880 nM; Tmax ([2]; oral, 100 mg/kg): 1.50 h; AUC0-6hr ([2]; oral, 300 mg/kg): 8.53 µM·h; Cmax ([2]; oral, 300 mg/kg): 2250 nM; Tmax ([2]; oral, 300 mg/kg): 3.33 h; Amount of related substances after storage (Solid stability test; [3]): 0.12%; Chemical purity after storage (Solid stability test; [3]): 99.88%; change in the powder X-ray diffraction pattern (Solid stability test; [3]): no change; increase in related substances (Solid stability test; [3]): almost no increase; Amount of related substances before storage (Solid stability test; before storage): 0.13%; Chemical purity before storage (Solid stability test; before storage): 99.87%
C=CC(=O)N1C[C@H](n2c(C#CC3CC3)c(C(=O)N[C@H](C)c3ccccc3)c3c(N)ncnc32)C[C@@H]1C [crystal of compound (I) with 1 equivalent of L-tartaric acid] [7-((3R,5S)-1-acryloyl-5-methylpyrrolidin-3-yl)-4-amino-6-(cyclopropylethynyl)-N—((R)-1-phenylethyl)-7H-pyrrolo[2,3-d]pyrimidine-5-carboxamide]	highly hygroscopic	0.50	0.54	1.05	1.16	1.60	1.67	2.16	2.38	3.26	3.64	6.41	Weight change rate, Adsorption ([1]; relative humidity 95%): 6.41%
C=CC(=O)N1C[C@H](n2c(C#CC3CC3)c(C(=O)N[C@H](C)c3ccccc3)c3c(N)ncnc32)C[C@@H]1C [free-form type I crystal of compound (I), 7-((3R,5S)-1-acryloyl-5-methylpyrrolidin-3-yl)-4-amino-6-(cyclopropylethynyl)-N—((R)-1-phenylethyl)-7H-pyrrolo[2,3-d]pyrimidine-5-carboxamide]	almost non-hygroscopic	0.01	0.01	0.04	0.04	0.10	0.13	0.26	0.60	0.50	0.69	0.72	Cmax [2, 4]: 2670 nM; AUC(0-t) [2, 4]: 7.42 µM·h; Tmax ([2]; female, Crl:CD (SD), plasma, po, 100 mg/kg, read-out: Tmax): 0.75 h; AUC(0-t) ([2]; female, Crl:CD (SD), plasma, po, 300 mg/kg): 7.11 µM·h; Cmax [2, 5]: 2250 nM; Tmax [2, 5]: 3.25 h; AUC 0-6 hr increase when the dose was increased from 100 mg/kg to 300 mg/kg [2, 6]: 1.0 times; Cmax increase when the dose was increased from 100 mg/kg to 300 mg/kg [2, 6]: 0.8 times
